# Patent US8828988B2 (Tetraphase Pharmaceuticals, Inc., priority 2009, dated 2014)
# Where two headings read alike, the source gives them in different places.
# Assays:
# [1] = test system: Staphylococcus aureus SA100, ATCC 13709, MSSA, Smith strain; assay: MIC assay, SA100; format: cell-based
# [2] = test system: Staphylococcus aureus SA158, tetracycline-resistant tet(K); assay: MIC assay, SA158; format: cell-based
# [3] = test system: S. aureus clinical isolates; assay: MIC50, MIC90 and MIC range, panel of clinical isolates (Example 20); format: cell-based; settings: MRSA, 30 isolates; in µg/mL
# Description: (§1) The assays were run as follows.
# (§2) Both values, as well as the MIC range (the lowest and highest MIC value observed for a collection of organisms), were determined for the isolates listed in Table 3.
# [4] = test system: S. pneumoniae clinical isolates; assay: as above; format: cell-based; settings: 19 isolates
# Description: as §1, §2
# [5] = test system: E. faecalis clinical isolates; assay: as above; format: cell-based; settings: 24 isolates, in µg/mL
# Description: as §1, §2
# [6] = test system: Streptococcus pneumoniae SP160, tetracycline-resistant, tet(M); assay: MIC assay, SP160; format: cell-based
# [7] = test system: Streptococcus pneumoniae SP106, ATCC 49619; assay: MIC assay, SP106; format: cell-based
# [8] = test system: Enterococcus faecalis EF159, tetracycline-resistant, tet(M); assay: MIC assay, EF159; format: cell-based
# [9] = test system: Enterobacter cloacae EC108, ATCC 13047; assay: MIC assay, EC108; format: cell-based
# [10] = test system: E. coli DH10B(pBAD-tetM), expressing tet(M); assay: MIC against recombinant E. coli expressing tet(M); format: cell-based
# From the text: (§3) Constructs were transformed into E. coli DH10B for expression. Recombinant strains were pre-induced under optimized conditions with L-arabinose prior to use as inocula in CLSI standardized MIC assays.
# [11] = test system: H. influenzae isolates (Eurofins-Medinet, recent clinical isolates); assay: MIC50 and MIC90 analysis (Example 22)
# Description: (§4) Frozen bacterial strains were thawed and subcultured onto Mueller Hinton Broth (MHB) or other appropriate media (Streptococcus requires blood and Haemophilus requires hemin and NAD). Following incubation overnight, the strains were subcultured onto Mueller Hinton Agar and again incubated overnight. […] Isolated colonies were selected to prepare a starting inoculum equivalent to a 0.5 McFarland standard. […] Antibiotics (stored frozen, thawed and used within 3 hours of thawing) and compounds were further diluted to the desired working concentrations.
# (§5) The assays were run as follows. Fifty μL of MHB was added to wells 2-12 of a 96-well plate. One hundred μL of appropriately diluted antibiotic or compound was added to well 1. Fifty μL of antibiotics or compound was removed from well 1 and added to well 2 and the contents of well 2 mixed by pipetting up and down five times. Fifty μL of the mixture in well 2 was removed and added to well 3 and mixed as above. Serial dilutions were continued in the same manner through well 12. Fifty μL was removed from well 12 so that all contained 50 μL. Fifty μL of the working inoculum was then added to all test wells. A growth control well was prepared by adding 50 μL of working inoculum and 50 μL of MHB to an empty well. The plates were then incubated at 37° C. overnight, removed from the incubator and each well was read on a plate reading mirror. The lowest concentration (MIC) of test compound that inhibited the growth of the bacteria was recorded.
# (§6) MIC, MIC50 and MIC90 values were determined according to CLSI methodology. S. pneumoniae and H. influenzae isolates were obtained from Eurofins-Medinet and are recent clinical isolates. S. aureus strains were collected from various geographical sources.
# [12] = test system: Klebsiella pneumoniae KP109, ATCC 13883; assay: MIC assay, KP109; format: cell-based
# [13] = test system: Enterococcus faecalis EF103, ATCC 29212; assay: MIC assay, EF103; format: cell-based; settings: for MIC: Enterococcus faecalis
# [14] = test system: Acinetobacter baumannii AB110, ATCC 19606; assay: MIC assay, AB110; format: cell-based
# [15] = test system: S. pneumoniae isolates (Eurofins-Medinet, recent clinical isolates); assay: MIC50 and MIC90 analysis (Example 22)
# Description: as §4, §5, §6
# [16] = test system: E. coli DH10B(pBAD-tetK), expressing tet(K); assay: MIC against recombinant E. coli expressing tet(K); format: cell-based; settings: for MIC: Escherichia coli
# From the text: as §3
# [17] = test system: Klebsiella pneumoniae KP153, tetracycline-resistant, tet(A), MDR, ESBL+; assay: MIC assay, KP153; format: cell-based
# [18] = test system: Staphylococcus aureus SA161, HA-MRSA, tetracycline-resistant, tet(M); assay: MIC assay, SA161; format: cell-based
# [19] = test system: Escherichia coli EC107, ATCC 25922; assay: MIC assay, EC107; format: cell-based
# [20] = test system: Pseudomonas aeruginosa PA111, ATCC 27853; assay: MIC assay, PA111; format: cell-based
# [21] = test system: Staphylococcus aureus SA101, ATCC 29213, MSSA; assay: MIC assay, SA101; format: cell-based
# [22] = test system: Escherichia coli EC155, tetracycline-resistant, tet(A); assay: MIC assay, EC155; format: cell-based
# [23] = test system: E. coli S30 extract system, coupled in vitro transcription/translation, firefly luciferase readout; assay: In vitro transcription/translation (TnT) assay; format: biochemical
# E. coli ATCC 25922 = assay: Mouse systemic infection model, E. coli septicemia; settings: mouse septicemia, E. coli ATCC 25922, treatment one hour post-challenge, survival after 48 hours
# [24] = test system: S. aureus ATCC 13709 (Smith); assay: Mouse systemic infection model, S. aureus septicemia; settings: mouse septicemia, S. aureus ATCC 13709, intravenous treatment one hour post-challenge, survival after 48 hours
# [25] = ATCC49619, read-out: MIC SP106 49619
# [26] = ATCC13047, read-out: MIC EC108 13047
# [27] = ATCC13883, read-out: MIC KP109 13883
# [28] = ATCC29212, read-out: MIC EF103 29212
# [29] = ATCC19606, read-out: MIC AB110 19606
# [30] = ATCC25922, read-out: MIC EC107 25922
# [31] = ATCC27853, read-out: MIC PA111 27853
compound,measurement,setting,value
"C[C@H]1c2cccc(O)c2C(=O)C2=C(O)[C@]3(O)C(=O)C(C(N)=O)=C(O)[C@@H](N(C)C)[C@@H]3[C@@H](O)[C@@H]21 [Doxycycline, doxycycline, reference compound]",MIC,"[1]; Table 9, read-out: MIC S. aureus ATCC 13709",0.13 µg/mL
same,MIC,"[2]; Table 8, read-out: MIC S. aureus tetK",2 µg/mL
same,MIC,"[2]; Table 9, read-out: MIC S. aureus SA158 (tet)K",2 µg/mL
same,MIC Range,[3],0.063-8
same,MIC Range,[4]; in µg/mL,<=0.016-16
same,MIC Range,[5],0.063-16
same,MIC,"[6]; Table 8, read-out: MIC S. pneumoniae tetM",4 µg/mL
same,MIC,"[6]; Table 9, read-out: MIC S. pneum SP160 (tet)M",8 µg/mL
same,MIC,"[7]; ATCC49619, Table 8, read-out: MIC S. pneumoniae ATCC 49619",0.06 µg/mL
same,MIC,"[7]; ATCC49619, Table 9, read-out: MIC S. pneum ATCC 49619",0.25 µg/mL
same,MIC,"[8]; Table 8, read-out: MIC E. faecalis tetM",4 µg/mL
same,MIC,"[8]; Table 9, read-out: MIC E. faecalis EF159 (tet)M",8 µg/mL
same,MIC,"[9]; ATCC13047, Table 9, read-out: MIC Enterobacter cloaceae ATCC 13047",4 µg/mL
same,MIC,"[10]; Escherichia coli, read-out: MIC, Uninduced",4 µg/mL
same,Ratio (TetM induced / Uninduced),[10]; ratio of MICs,8
same,MIC Range,[11]; H. influenzae (n = 12),0.5 to 4 µg/mL
same,MIC50,[11]; Haemophilus influenzae,1 µg/mL
same,MIC90,[11]; Haemophilus influenzae,4 µg/mL
same,MIC,"[12]; ATCC13883, Table 9, read-out: MIC Klebsiella pneum ATCC 13883",2 µg/mL
same,MIC,"[13]; ATCC29212, Table 8, read-out: MIC E. faecalis ATCC 29212",4 µg/mL
same,MIC E. faecalis ATCC 29212,[13]; Table 9,4 µg/mL
same,MIC,"[14]; ATCC19606, Table 9, read-out: MIC A.baum AB110",2 µg/mL
same,MIC Range,[15]; S. pneumoniae (n = 20),≦0.016-16 μg/ml
same,MIC50,[15]; Streptococcus pneumoniae,8 µg/mL
same,MIC90,[15]; Streptococcus pneumoniae,8 µg/mL
same,MIC,"[16]; read-out: MIC, TetK Induced",8 µg/mL
same,MIC,"[16]; read-out: MIC, Uninduced",2 µg/mL
same,"MIC ratio, TetK induced to uninduced",[16]; ratio of TetK induced to uninduced MIC,4
same,"MIC in the presence of tet(K) expression, fold higher than when tet(K) was not expressed",[16]; tet(K) expressed vs not expressed,4 fold
same,MIC,"[17]; Table 9, read-out: MIC Klebsiella pneum KP153 (tet)A",32 µg/mL
same,MIC,"[18]; Table 8, read-out: MIC S. aureus MRSA, tetM",8 µg/mL
same,MIC,"[18]; Table 9, read-out: MIC MRSA (tet)M SA161",8 µg/mL
same,MIC,"[19]; ATCC25922, Table 8, read-out: MIC E. coli ATCC 25922",1 µg/mL
same,MIC,"[19]; ATCC25922, Table 9, read-out: MIC E. coli ATCC 25922",1 µg/mL
same,MIC,"[20]; ATCC27853, Table 9, read-out: MIC P. aeruginosa ATCC 27853",> 32 µg/mL
same,MIC,"[21]; Table 8, read-out: MIC S. aureus ATCC 29213",0.13 µg/mL
same,MIC,"[21]; Table 9, read-out: MIC S. aureus ATCC 29213",0.5 µg/mL
same,MIC,"[22]; Table 8, read-out: MIC E. coli tetA",32 µg/mL
same,MIC,"[22]; Table 9, read-out: MIC E. coli EC155 (tet)A",32 µg/mL
"CN(C)c1ccc(O)c2c1C[C@H]1C[C@H]3[C@H](N(C)C)C(O)=C(C(N)=O)C(=O)[C@@]3(O)C(O)=C1C2=O [Mino., Minocycline, reference compound]",MIC,"[1]; numeric values of control compounds, read-out: MIC SA100 13709",0.06 µg/mL
same,MIC,"[2]; numeric values of control compounds, read-out: MIC SA158 tetK",0.03 µg/mL
same,MIC,"[6]; numeric values of control compounds, read-out: MIC SP160 tetM",2 µg/mL
same,MIC,"[7]; ATCC49619, numeric values of control compounds, read-out: MIC SP106 49619",< 0.015 µg/mL
same,MIC,"[8]; numeric values of control compounds, read-out: MIC EF159 tetM",16 µg/mL
same,MIC,"[9]; ATCC13047, numeric values of control compounds, read-out: MIC EC108 13047",2 µg/mL
same,MIC,"[14]; ATCC19606, numeric values of control compounds, read-out: MIC AB110 19606",0.06 µg/mL
same,MIC,"[17]; numeric values of control compounds, read-out: MIC KP153 tetA",8 µg/mL
same,MIC,"[18]; numeric values of control compounds, read-out: MIC SA161 MRSA, tetM",8 µg/mL
same,MIC,"[19]; ATCC25922, numeric values of control compounds, read-out: MIC EC107 25922",0.5 µg/mL
same,MIC,"[20]; ATCC27853, numeric values of control compounds, read-out: MIC PA111 27853",16 µg/mL
same,MIC,"[21]; numeric values of control compounds, read-out: MIC SA101 29213",0.06 µg/mL
same,MIC,"[22]; numeric values of control compounds, read-out: MIC EC155 tetA",8 µg/mL
"CN(C)[C@@H]1C(O)=C(C(N)=O)C(=O)[C@@]2(O)C(O)=C3C(=O)c4c(O)cccc4C[C@H]3C[C@@H]12 [San., Sancycline, reference compound]",MIC,[1]; read-out: MIC SA100 13709,1 µg/mL
same,MIC,[2]; read-out: MIC SA158 tetK,4 µg/mL
same,MIC,[6]; read-out: MIC SP160 tetM,8 µg/mL
same,MIC,[7]; [25],0.25 µg/mL
same,MIC,[8]; read-out: MIC EF159 tetM,8 µg/mL
same,MIC,[9]; [26],8 µg/mL
same,MIC,[12]; [27],8 µg/mL
same,MIC,[13]; [28],8 µg/mL
same,MIC,[14]; [29],0.25 µg/mL
same,MIC,[17]; read-out: MIC KP153 tetA,32 µg/mL
same,MIC,[19]; [30],8 µg/mL
same,MIC,[20]; [31],> 32 µg/mL
same,MIC,[21]; read-out: MIC SA101 29213,0.5 µg/mL
same,MIC,[22]; read-out: MIC EC155 tetA,32 µg/mL
"CN(C)c1cc(NC(=O)CNC(C)(C)C)c(O)c2c1C[C@H]1C[C@H]3[C@H](N(C)C)C(O)=C(C(N)=O)C(=O)[C@@]3(O)C(O)=C1C2=O [Tige., Tigecycline, reference compound]",MIC,[1]; read-out: MIC SA100 13709,0.06 µg/mL
same,MIC,[2]; read-out: MIC SA158 tetK,0.06 µg/mL
same,MIC,[6]; read-out: MIC SP160 tetM,0.0156 µg/mL
same,MIC,[7]; [25],0.0156 µg/mL
same,MIC,[8]; read-out: MIC EF159 tetM,0.06 µg/mL
same,MIC,[9]; [26],0.25 µg/mL
same,MIC,[12]; [27],0.125 µg/mL
same,MIC,[13]; [28],0.03 µg/mL
same,MIC,[14]; [29],0.25 µg/mL
same,TnT IC50,[23],0.3 µg/mL
same,MIC,[17]; read-out: MIC KP153 tetA,1 µg/mL
same,MIC,"[18]; read-out: MIC SA161 MRSA, tetM",0.125 µg/mL
same,MIC,[19]; [30],0.03 µg/mL
same,MIC,[20]; [31],8 µg/mL
same,MIC,[21]; read-out: MIC SA101 29213,0.06 µg/mL
same,MIC,[22]; read-out: MIC EC155 tetA,0.5 µg/mL
"CN(C)c1cc(NC(=O)CNC(C)(C)C)c(O)c2c1C[C@H]1C[C@H]3[C@H](N(C)C)C(O)=C(C(N)=O)C(=O)[C@@]3(O)C(O)=C1C2=O [tigecycline, reference compound]",MIC,[1]; read-out: MIC S. aureus ATCC 13709,0.13 µg/mL
same,MIC Range,[3],0.063-0.25
same,MIC Range,[4],≦0.016
same,MIC Range,[5],<=0.016-0.13
same,TnT IC50,[23],0.47 µg/mL
same,PD50,E. coli ATCC 25922,2.1 mg/kg
same,MIC,"[19]; ATCC25922, read-out: MIC E. coli ATCC 25922",0.13 µg/mL
same,PD50,[24],0.35 mg/kg
